Test [1] relates to anaplastic lymphoma kinase (ALK). Conditions: cited from earlier work.
Test [2] relates to Tie2. Conditions: ref 13b; cited from earlier work.
Test [3] relates to LRRK2. Conditions: ref 13c; cited from earlier work.
The target in test [4] is T1, full-length human TSSK2 (Homo sapiens, UniProt Q96PF2).
T1 sequence (Q96PF2 1-358): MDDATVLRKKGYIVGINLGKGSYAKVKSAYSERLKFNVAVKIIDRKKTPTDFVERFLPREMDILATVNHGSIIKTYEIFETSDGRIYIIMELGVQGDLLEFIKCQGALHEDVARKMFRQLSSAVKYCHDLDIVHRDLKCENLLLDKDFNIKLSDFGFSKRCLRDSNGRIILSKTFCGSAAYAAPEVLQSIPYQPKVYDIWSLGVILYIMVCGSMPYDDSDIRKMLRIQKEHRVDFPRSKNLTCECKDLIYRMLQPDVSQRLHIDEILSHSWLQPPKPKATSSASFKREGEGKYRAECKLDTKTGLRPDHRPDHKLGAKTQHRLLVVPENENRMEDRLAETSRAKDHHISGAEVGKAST
Kind of test: Mobility shift assay: TSSK2 phosphorylation of 5-FAM-GS peptide. Conditions: for fold reduction in TSSK2 activity: relative to compound 18; for TSSK2 inhibitor confirmed in concentration-response experiments after HTS: HTS at 10 μM, cherry-picked compounds from DMSO stocks. The format is biochemical.

The subject of test [5] is FLT3. Conditions: ref 13b; cited from earlier work.
Test [6] has as its target focal adhesion kinase (FAK). Conditions: patent literature, Supplementary Table 2; ref 13p; cited from earlier work.
The test system of test [7] is TSSK3. Kind of test: TSSK family member inhibition, TSSK3. The format is biochemical.
The target in test [8] is TSSK6 (Homo sapiens, UniProt Q9BXA6). As to the kind of experiment: TSSK family member inhibition, TSSK6. The format is biochemical.
The target of test [9] is T2, TSSK1 (Homo sapiens, UniProt Q9BXA7).
T2 sequence (Q9BXA7 1-367): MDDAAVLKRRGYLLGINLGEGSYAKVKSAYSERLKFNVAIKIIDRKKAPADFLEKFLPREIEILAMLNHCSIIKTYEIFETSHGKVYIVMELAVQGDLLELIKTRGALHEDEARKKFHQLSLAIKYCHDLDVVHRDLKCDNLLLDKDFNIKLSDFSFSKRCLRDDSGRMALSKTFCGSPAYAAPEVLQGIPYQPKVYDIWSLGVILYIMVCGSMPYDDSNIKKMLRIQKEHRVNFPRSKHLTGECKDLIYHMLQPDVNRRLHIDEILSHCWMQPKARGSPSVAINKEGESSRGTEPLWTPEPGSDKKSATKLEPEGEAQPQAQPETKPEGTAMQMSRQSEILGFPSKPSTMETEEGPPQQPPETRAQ
As to the kind of experiment: TSSK family member inhibition, TSSK1. The format is biochemical.

The subject of test [10] is 369 wild-type kinases. Kind of test: Kinome profiling at Reaction Biology Corp. The test is classed as biochemical. Conditions: 100 nM.
Test [11] concerns insulin-like growth factor 1 receptor (IGF-1R). Conditions: cited from earlier work.
In test [12] the target is insulin receptor. Conditions: read-out: insulin receptor IC50; Supplementary Table 2; ref 13a; cited from earlier work.
Test [13] concerns LTK. Conditions: read-out: LTK IC50; Supplementary Table 2; ref 13a; cited from earlier work.
The subject of test [14] is CLK2. Conditions: read-out: CLK2 IC50; Supplementary Table 2; ref 13a; cited from earlier work.
For test [15], the system named is kinases (PKIS profiling panel). Conditions: at 100 nM; ref profiling data provided by GSK supporting the PKIS collections; cited from earlier work.
The subject of test [16] is insulin-like growth factor 1 receptor (IGF-1R). As to the kind of experiment: Reported IGF-1R inhibition. The test is classed as biochemical.
The subject of test [17] is GRK1. As to the kind of experiment: Reported GRK inhibition. The format is biochemical. Conditions: GRK data ref 10d.

Data on 10 molecules can be found in article PMC5962959 (ChemMedChem, 2017).

TSSK6, sequence (Q9BXA6 whole entry): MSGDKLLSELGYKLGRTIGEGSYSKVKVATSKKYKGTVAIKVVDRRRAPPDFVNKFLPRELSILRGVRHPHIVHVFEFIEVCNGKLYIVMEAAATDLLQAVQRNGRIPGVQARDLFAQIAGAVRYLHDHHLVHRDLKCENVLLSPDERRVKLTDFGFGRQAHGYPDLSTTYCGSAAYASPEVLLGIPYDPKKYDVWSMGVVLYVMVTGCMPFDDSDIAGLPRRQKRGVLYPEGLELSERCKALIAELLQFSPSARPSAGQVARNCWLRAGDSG

Regarding `COc1cc(N2CCC(N3CCN(C)CC3)CC2)ccc1Nc1ncc(Cl)c(Nc2ccccc2S(=O)(=O)C(C)C)n1` [Compound 22], in [1], the “activity at ALK” value is “low nanomolar”. For the same molecule, the “activity at Tie2” value in [2] is on record as “low nanomolar”. Further, the “activity at LRRK2” value in test [3] is listed as “low nanomolar”. Also, in test [4], the “fold reduction in TSSK2 activity” value is ~ 2 fold. Further, the “activity at FLT3” value in test [5] is “low nanomolar”.

Turning to `COc1ccc([C@@H]2CC(=O)c3c(O)cc(O[C@@H]4O[C@H](CO[C@@H]5O[C@@H](C)[C@H](O)[C@@H](O)[C@H]5O)[C@@H](O)[C@H](O)[C@H]4O)cc3O2)cc1O` [hesperidin], the “TSSK2 inhibitor confirmed in concentration-response experiments after HTS” value (shortened to “TSSK2 inhibitor confirmed”) in [4] is reported as “active”.

Consider `CCn1c(-c2nonc2N)nc2c(C#CC(C)(C)O)nc(O[C@@H](CN)c3ccccc3)cc21` [GSK1007102B], for which the “TSSK2 inhibitor confirmed” value in [4] was “active”.

`CNS(=O)(=O)c1ccccc1Nc1nc(Nc2ccc(N3CCN(C)CC3)cc2OC)ncc1Cl` [Compound 18]: the “FAK IC50” value in [6] is “low nanomolar”.

With `CNS(=O)(=O)c1ccccc1Nc1nc(Nc2ccc(C3CCN(C)CC3)cc2OC)ncc1Cl` [Compound 19, 2-[[5-chloro-2-[2-methoxy-4-(1-methylpiperidin-4-yl)anilino]pyrimidin-4-yl]amino]-N-methylbenzenesulfonamide], the “fold more potent at TSSK1 than TSSK3” value in test [7] was 800 fold. Moreover, in test [8], the “activity at TSSK6” value was “almost inactive” and the “fold selective for TSSK1 over TSSK6” value is ~100,000 fold. In [9], the “fold more potent at inhibiting TSSK1 than TSSK2” value was > 40 fold and the “rank order potency at TSSK isoforms” value is reported as “TSSK1 > TSSK2 > TSSK3 > TSSK6”. In addition, the “fold reduction in TSSK2 activity” value in [4] is < 2 fold. Moreover, the “number of 369 kinases inhibited to a greater extent than TSSK2” value in [10] is listed as 62.

Regarding `CNS(=O)(=O)c1ccccc1Nc1nc(Nc2ccc(N3CCN(C)CC3)cc2OC)ncc1Br` [Compound 17], the “FAK IC50” value in test [6] was “low nanomolar”. Further, in [11] (compared with FAK, ref 13p), the “potency for inhibiting IGF-1R” value is listed as “substantially less potent”.

`COc1cc(N2CCC(O)CC2)ccc1Nc1nc(Nc2ccccc2S(=O)(=O)C(C)C)c2[nH]cnc2n1` [Compound 35]: the half-inhibitory concentration (IC50) in [12] was 20 to 40 nM; in test [13], 20 to 40 nM; in test [14] it was 20 to 40 nM; in [11] (read-out: IGF-1R IC50, Supplementary Table 2, ref 13a), 20 to 40 nM.

In the case of `COc1cc2c(cc1Nc1nc(Nc3ccsc3C(N)=O)c3cc[nH]c3n1)N(C(=O)CN(C)C)CCC2(C)C` [Compound 10], the “number of kinases inhibited by > 50%” value in test [15] is reported as 15 – 20. Moreover, the “fold more potent inhibitors of IGF-1 than of TSSK2” value in test [16] was ≥ 100 fold. For the same molecule, the “fold selective for TSSK2 over GRK1” value in [17] was > 5 fold.

In the case of `O=c1[nH]c2ccc(Cl)cc2c(N[C@@H]2CN3CCC2CC3)c1-c1nc2ccccc2[nH]1` [CHIR-124], the “TSSK2 inhibitor confirmed” value in test [4] is “active”.

As to `CC(=O)NCC(=O)N1[C@@H]2CC[C@H]1c1ccc(Nc3ncc(C(F)(F)F)c(NC4CCC4)n3)cc12` [PF-03814735], the “TSSK2 inhibitor confirmed” value in test [4] is reported as “active”.
